Article PMC7651859, “Identification of 6-amino-1H-pyrazolo[3,4-d]pyrimidines with in vivo efficacy against visceral leishmaniasis” (RSC Medicinal Chemistry, 2020)
≈ marks a conversion by molar mass, not a printed value. Like-named read-outs stand apart in the source and are kept apart here.

How the values were obtained:
[1] = test system: L. donovani amastigotes; experiment: Ld InMac intramacrophage Leishmania donovani assay; type: cell-based; conditions: Leishmania donovani; L. donovani amastigotes in THP-1 cells; mean of n ≥ 3; read-out: Ld InMac pEC50 (converted)
Excerpt: (§1) For the identification of DDD853651/GSK3186899, which contained a trans-1,4-cyclohexyldiamine, a key strategy was to optimise the balance between potency in the intracellular Leishmania assay (L. donovani in THP-1 cells, referred to as Ld InMac assay[9]) and solubility.[10] In that case, we focused on 2 (Table 1), where the sulfonamide was required for potency but was poorly soluble. […] To this end, we examined a 4-aminopiperidine central unit with both sulfonamide and amide substituents (Table 1). […] We therefore selected 4 as a suitable start-point for further chemistry. […] We noted that either lengthening the linker to the aromatic ring, or removing it, led to a loss of activity (6 and 7 respectively).
(§2) Intramacrophage Leishmania donovani Assay

[2] = test system: THP-1 cells; experiment: THP-1 host cell toxicity readout of the Ld InMac assay; type: cell-based; conditions: Homo sapiens; host THP-1 cells; mean of n ≥ 3; read-out: THP-1 pEC50 (converted)
Excerpt: as §1, §2

[3] = Aqueous solubility, values marked with ref 12; type: physicochemical; conditions: values marked [12] in the table (method of ref 12, not CAD)
[4] = CAD kinetic aqueous solubility; type: physicochemical; conditions: pH 7.4, pH7.4 phosphate buffered saline
Procedure: CAD Aqueous Solubility 11
5µl of 10mM DMSO stock solution is diluted to 100 µ l with pH7.4 phosphate buffered saline,
equilibrated for 1 hour at room temperature and filtered through Millipore MultiscreenHTS-PCF

[5] = Stability in mouse liver microsomes (intrinsic clearance); type: in vitro ADME; conditions: mouse liver microsomal intrinsic clearance, 0.5 μM
Procedure: Stability in Microsomes 10
Test compound (0.5 μM) was incubated with female CD1 mouse (Xenotech) liver microsomes and their action started with addition of excess NADPH (8 mg/mL 50 mM potassium phosphate buffer, pH 7.4). Immediately, at time zero, then at 3, 6, 9, 15, and 30 min, an aliquot (50 μL) of the incubation mixture was removed and mixed with acetonitrile (100 μL) to stop the reaction.
Internal standard was added to all samples, the samples centrifuged to sediment precipitated protein, and the plates then sealed prior to UPLC-MS/MS analysis using a Xevo TQs micro (Waters Corporation, USA). XLfit (IDBS, UK) was used to calculate the exponential decay and consequently the rate constant (k) from the ratio of the peak area of test compound to internal standard at each time point. The rate of intrinsic clearance (Cl i) of each test compound was then calculated using the equation Cl i (mL/min/g liver) = k × V × microsomal protein yield, where V (mL/mg protein) is the incubation volume/mg protein added and […]
microsomal protein yield is taken as 52.5 mg protein/g liver. Verapamil (0.5 μM) was used as a positive control to confirm acceptable assay performance. […]

[6] = FaSSIF solubility; type: physicochemical; conditions: fasted state simulated intestinal fluid (FaSSIF)
[7] = Oral pharmacokinetics in Balb-c mice; type: in vivo; conditions: mouse, blood, female Balb-c mice, 100 mg kg^–1
Excerpt: On this basis, 48 and 50 were progressed into orally dosed pharmacokinetic studies in female Balb-c mice (Table 6), with both having sufficient Cmax (the highest concentration of a drug in the blood) and AUC (area under the curve) to progress into the previously reported mouse efficacy model of VL.[10]

[8] = test system: L. donovani; experiment: Mouse efficacy model of VL; type: in vivo; conditions: for % Suppression of parasite load: liver load
Procedure: page 37: microsomal protein yield is taken as 52.5 mg protein/g liver. Verapamil (0.5 μM) was used as a positive control to confirm acceptable assay performance. In Vivo Efficacy Studies 10 Groups of female BALB/c mice (5 per group) were inoculated intravenously with approximately […] L. donovani amastigotes (LV9; WHO designation: MHOM/ET/67/HU3) harvested from the spleen of an infected hamster. From day 7 post infection, groups of mice were treated with either drug vehicle only (orally), with control drugs Miltefosine 30 mg/kg orally and Pentostam 15 mg/kg subcutaneously (only in compound 48 efficacy experiment) or with test compound at the appropriate dose. Miltefosine and Pentostam were dosed once daily for 5 days and test compounds were dosed twice daily for 5 days. Drug dosing solutions were prepared fresh each day and the vehicle was deionized water for Miltefosine and Pentostam, or 0.5% HPMC, 0.4% Tween 80, and 0.5% benzyl alcohol for test compounds. On day 14 all animals were humanely euthanized, liver smears made, and parasite burdens determined by counting the number of amastigotes/500 liver cells. Parasite burden is expressed in Leishman−Donovan units (LDU): the number of amastigotes per 500 nucleated cells multiplied by the organ weight in milligrams. S-37

[9] = molecular target: T1, ERK8 (Homo sapiens, UniProt Q8TD08); experiment: Human kinase panel and IC50, ERK8; type: biochemical
T1 sequence (Q8TD08 1-544): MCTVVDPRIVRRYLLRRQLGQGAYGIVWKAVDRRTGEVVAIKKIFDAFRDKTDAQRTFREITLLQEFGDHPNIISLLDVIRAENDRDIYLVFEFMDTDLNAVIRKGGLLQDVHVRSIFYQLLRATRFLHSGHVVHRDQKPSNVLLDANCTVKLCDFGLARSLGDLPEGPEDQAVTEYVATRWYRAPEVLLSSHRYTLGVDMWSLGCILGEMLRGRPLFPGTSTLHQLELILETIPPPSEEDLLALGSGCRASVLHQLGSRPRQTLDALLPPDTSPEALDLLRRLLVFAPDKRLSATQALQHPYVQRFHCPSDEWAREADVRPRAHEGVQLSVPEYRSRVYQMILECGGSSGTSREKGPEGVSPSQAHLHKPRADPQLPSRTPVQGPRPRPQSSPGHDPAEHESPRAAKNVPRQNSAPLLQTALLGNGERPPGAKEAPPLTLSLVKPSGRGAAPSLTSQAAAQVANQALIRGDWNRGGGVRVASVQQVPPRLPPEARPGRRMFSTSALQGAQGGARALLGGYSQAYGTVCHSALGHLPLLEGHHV
Excerpt: (§3) From this, only 4 kinases were inhibited at >40% (ERK8 [extracellular signal-regulated kinases], p38α and p38β MAPK [mitogen-activated protein kinases] and CDK2 [cyclin dependant kinase]).

[10] = molecular target: p38α MAPK (Homo sapiens, UniProt Q16539); experiment: Human kinase panel, p38α MAPK; type: biochemical; conditions: panel of 140 human kinases
p38α MAPK, sequence (Q16539 whole entry): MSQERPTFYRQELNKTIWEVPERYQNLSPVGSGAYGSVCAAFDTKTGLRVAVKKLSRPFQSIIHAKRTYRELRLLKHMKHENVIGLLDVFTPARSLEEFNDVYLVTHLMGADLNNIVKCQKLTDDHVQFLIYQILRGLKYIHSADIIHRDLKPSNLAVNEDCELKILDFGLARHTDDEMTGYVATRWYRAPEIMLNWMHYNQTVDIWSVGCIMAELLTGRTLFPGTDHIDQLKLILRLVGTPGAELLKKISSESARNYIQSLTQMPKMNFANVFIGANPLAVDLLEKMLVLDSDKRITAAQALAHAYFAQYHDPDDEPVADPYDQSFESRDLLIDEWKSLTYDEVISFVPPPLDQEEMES
Excerpt: as §3

[11] = molecular target: p38β MAPK (Homo sapiens, UniProt Q15759); experiment: Human kinase panel and IC50, p38β MAPK; type: biochemical
p38β MAPK, sequence (Q15759 whole entry): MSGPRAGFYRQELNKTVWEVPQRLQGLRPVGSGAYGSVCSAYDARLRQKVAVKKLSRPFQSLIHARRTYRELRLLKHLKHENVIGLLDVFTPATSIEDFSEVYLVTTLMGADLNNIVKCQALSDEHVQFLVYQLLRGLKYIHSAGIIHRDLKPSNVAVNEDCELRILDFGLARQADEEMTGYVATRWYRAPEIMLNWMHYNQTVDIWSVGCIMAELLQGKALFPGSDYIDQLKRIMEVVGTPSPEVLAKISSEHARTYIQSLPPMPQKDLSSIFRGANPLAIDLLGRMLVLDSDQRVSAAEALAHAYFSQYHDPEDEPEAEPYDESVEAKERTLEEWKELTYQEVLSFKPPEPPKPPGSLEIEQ
Excerpt: as §3

[12] = molecular target: CDK2 (Homo sapiens, UniProt P24941); experiment: Human kinase panel, CDK2; type: biochemical; conditions: panel of 140 human kinases
Excerpt: as §3

[13] = Rat dose-escalation PK study; type: in vivo
[14] = 10 μM, panel of 140 human kinases
[15] = dose increased from 100 to 300 mg kg^–1

In the case of Clc1ccc(N2CCC(Nc3ncc4c(C5CCOCC5)n[nH]c4n3)CC2)nn1 [Compound 49], the EC50 [1] is reported as 1580 nM, the EC50 [2] is reported as greater than 50100 nM and the solubility ([3]; aqueous solution) is reported as 63 µM (≈ 26.1 µg/mL).
O=C(Cc1ccc(F)c(F)c1)N1CCC(Nc2ncc3c(N4CCOCC4)n[nH]c3n2)CC1 [Compound 48] gave an EC50 [1] of 794 nM, an EC50 [2] greater than 50100 nM and a solubility at 1 h [4] of no less than 465 µM. For the same molecule, the Cli mouse [5] was 1.6 ml min^–1 g^–1, the solubility [6] was 97 µg/mL (≈ 212 µM) and the AUC [7] was 20900 ng·h/mL. For the same molecule, the Cmax [7] was 5760 ng/mL, the Tmax [7] was 1 h and the “% Suppression of parasite load” value ([8]; 30 mg kg^–1 b.i.d. for 5 days PO) was 60%. The “% Suppression of parasite load” value ([8]; 100 mg kg^–1 b.i.d. for 5 days PO) was 98%, the minimum efficacious dose ([8]; mouse model of VL) was 100 mg kg^–1 and the inhibition at 10 µM [9, 14] was greater than 40%. The IC50 ([9]; full IC50 curve) was 110 nM, the inhibition at 10 µM [10] was greater than 40% and the inhibition at 10 µM [11, 14] was greater than 40%. It also gave an IC50 ([11]; full IC50 curve) of 550 nM, an inhibition at 10 µM [12] greater than 40% and a Cmax ([13]; blood, 10 mg kg^–1) of 229 ng/mL. The Tmax ([13]; blood, 10 mg kg^–1) was 0.67 h, the AUC(0-t) ([13]; blood, 10 mg kg^–1, read-out: AUC (0-Tlast)) was 488 ng·h/mL and the Cmax ([13]; blood, 100 mg kg^–1) was 5520 ng/mL. The Tmax ([13]; blood, 100 mg kg^–1) was 6 h, the AUC(0-t) ([13]; blood, 100 mg kg^–1, read-out: AUC (0-Tlast)) was 50600 ng·h/mL and the Cmax ([13]; blood, 300 mg kg^–1) was 6760 ng/mL. For the same molecule, the Tmax ([13]; blood, 300 mg kg^–1) was 6.67 h, the “increase in AUC(0-Tlast)” value [13, 15] was 1.7 fold and the “increase in Cmax” value [13, 15] was 1.2 fold. For the same molecule, the AUC(0-t) ([13]; in vivo, 300 mg kg^–1, read-out: AUC (0-Tlast)) was 84600 ng·h/mL.
For COc1ccccc1-c1n[nH]c2nc(NC3CCN(C(=O)Cc4ccc(F)cc4F)CC3)ncc12 [Compound 20], the EC50 [1] was 79.4 nM, the EC50 [2] was 39800 nM and the solubility at 1 h [4] was less than 1 µM. For the same molecule, the Cli mouse [5] was 5.0 ml min^–1 g^–1 and the solubility [6] was less than 1 µg/mL.
With COc1ccccc1-c1n[nH]c2nc(NC3CCN(C(=O)CC4CC4)CC3)ncc12 [Compound 42] the EC50 [1] was 316 nM, the EC50 [2] was 39800 nM and the solubility at 1 h [4] was 22 µM (≈ 8.94 µg/mL). It also gave a Cli mouse [5] of 1.6 ml min^–1 g^–1 and a solubility [6] of less than 1 µg/mL.
For Clc1ccc(N2CCC(Nc3ncc4c(N5CCOCC5)n[nH]c4n3)CC2)nn1 [Compound 50], the EC50 [1] was 631 nM, the EC50 [2] was greater than 50100 nM and the solubility ([3]; aqueous solution) was 121 µM (≈ 50.3 µg/mL). For the same molecule, the Cli mouse [5] was 0.6 ml min^–1 g^–1, the solubility [6] was 88 µg/mL (≈ 212 µM) and the AUC [7] was 39800 ng·h/mL. For the same molecule, the Cmax [7] was 5230 ng/mL, the Tmax [7] was 4 h and the “% Suppression of parasite load” value ([8]; 25 mg kg^–1 b.i.d. for 5 days PO) was 17%. For the same molecule, the “% Suppression of parasite load” value ([8]; 50 mg kg^–1 b.i.d. for 5 days PO) was 57%.
In the case of COc1ccccc1-c1n[nH]c2nc(NC3CCN(c4ccc(Cl)nn4)CC3)ncc12 [Compound 41], the EC50 [1] is reported as 158 nM, the EC50 [2] is reported as greater than 50100 nM and the solubility [3] is reported as 4 µM (≈ 1.75 µg/mL). It also gave a Cli mouse [5] of 3.4 ml min^–1 g^–1.
For O=C(Cc1ccc(F)cc1F)N1CCC(Nc2ncc3c(N4CCOCC4)n[nH]c3n2)CC1 [Compound 15], the EC50 [1] was 794 nM, the EC50 [2] was greater than 50100 nM and the solubility at 1 h [4] was 14 µM (≈ 6.4 µg/mL). For the same molecule, the Cli mouse [5] was 2 ml min^–1 g^–1.
In the case of O=C(Cc1ccc(F)cc1F)N1CCC(Nc2ncc3c(C4CC4)n[nH]c3n2)CC1 [Compound 12], the EC50 [1] is reported as 1260 nM, the EC50 [2] is reported as greater than 50100 nM and the solubility at 1 h [4] is reported as 39 µM (≈ 16.1 µg/mL). For the same molecule, the Cli mouse [5] was 5.0 ml min^–1 g^–1.
